Reference: PMC7925462, “A synthetic peptide as an allosteric inhibitor of human arginase I and II” (Molecular Biology Reports, 2021)
Like-named read-outs stand apart in the source and are kept apart here. Ends that are not written are not given here.

Tests used:
human arginase I (hargI) [1] = target: T1, human arginase I (hargI) (Homo sapiens, UniProt P05089); assay: Dose-response of ABH on hargI in presence/absence of REGNH, L-arginine metabolism; format: biochemical
T1 construct: TEV protease site and linker (N); made in house; host or cells: E. coli BL21 (DE3) RIL
T1 sequence (P05089 with tags, fused parts or gaps): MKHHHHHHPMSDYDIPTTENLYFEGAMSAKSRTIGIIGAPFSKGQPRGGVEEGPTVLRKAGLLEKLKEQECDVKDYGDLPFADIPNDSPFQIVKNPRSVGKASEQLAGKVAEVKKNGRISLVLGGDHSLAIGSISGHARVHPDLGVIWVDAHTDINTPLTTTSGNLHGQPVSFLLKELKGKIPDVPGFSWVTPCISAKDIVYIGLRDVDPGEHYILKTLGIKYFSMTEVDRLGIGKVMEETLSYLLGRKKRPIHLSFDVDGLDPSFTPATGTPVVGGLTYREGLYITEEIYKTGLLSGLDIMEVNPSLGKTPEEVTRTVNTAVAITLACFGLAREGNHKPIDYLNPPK

[2] = target: T2, human arginase I (wild-type hargI, His6-tagged) (Homo sapiens, UniProt P05089); assay: MST binding assay, hargI
T2 construct: TEV protease site and linker (N); made in house; host or cells: E. coli BL21 (DE3) RIL
T2 sequence (P05089 with tags, fused parts or gaps): T1 sequence (P05089 with tags, fused parts or gaps)
Experimental: Microscale thermophoresis (MST)
MST measurements were performed on a Monolith NT.115 instrument (Nanotemper Technologies, GmbH). Purified His6-tagged hargI sample was labeled with the Monolith His-Tag Labeling Kit RED-tris-NTA (MO-L008) according to the protocol (Nanotemper Technologies, GmbH). All measurements were performed in triplicate in MST buffer (25 mM Tris-HCl pH 7.5, 125 mM NaCl, 1% Glycerol and 1 mM BME, 0.05% Tween-20) using standard capillaries (K002, Nanotemper Technologies, GmbH). Labeled hargI was used at a final concentration of 50 nM according to the manufacturer’s recommendations. All measurements were performed at 60% LED excitation power and 40% MST power, Laser-On time was 30 s, Laser-Off time 5 s. The peptide REGNH was titrated in 1:1 dilution starting at 2.82 μM. All binding reactions were incubated for 10 min at room temperature followed by centrifugation at 20,000 g before loading into the capillaries.
The ability of the synthetic peptide analogue (REGNH) to bind to wild-type hargI and II was examined using Microscale Thermophoresis (MST) (Nanotemper, GmbH). […] After 10 min incubation at room temperature the dose-response MST curve was measured, which yielded a clear binding curve with determined dissociation constant of 177 ± 50 μM for hargI, and 196 ± 25 μM for hargII (Fig. 2).

[3] = tested on: Arg308Ala mutant of human arginase I; settings: low concentrations of guanidinium chloride, ref [17], cited from earlier work
From the text: A promising avenue in arginase inhibitors research is a structural feature that shared by all mammalian arginases – the S-shaped motif at the C-terminal. The functional significance of this motif is that it accounts for 54% of intersubunit contacts. In Human Arginase I (hargI) the S-shaped motif is comprised by residues 304–322, where Arg308 is thought to play the major role, as it forms a salt bridge with Glu262. In rat liver arginase I, Arg308 also forms an intermonomer salt bridge with Asp204 from an adjacent subunit. The importance of Arg308 is supported by the di ... || The aim of the described research is to examine the effect of the peptide analogue REGNH (residue 308–312), which comprises part of the S-shape motif from the C-terminal (residue 308–322) on hargI. A previous study has shown that the C terminal tail plays a critical role in retaining trimeric protein assembly, as well as in the cooperative response of arginase in L-arginine metabolism.

[4] = tested on: wild-type and truncated (terminating at Arg308 or Ala308) arginase I; settings: wild-type and truncated species terminating at Arg308 or Ala308, even at higher concentrations; ref [17]; cited from earlier work
From the text: A promising avenue in arginase inhibitors research is a structural feature that shared by all mammalian arginases – the S-shaped motif at the C-terminal. The functional significance of this motif is that it accounts for 54% of intersubunit contacts. In Human Arginase I (hargI) the S-shaped motif is comprised by residues 304–322, where Arg308 is thought to play the major role, as it forms a salt bridge with Glu262. In rat liver arginase I, Arg308 also forms an intermonomer salt bridge with Asp204 from an adjacent subunit. The importance of Arg308 is supported by the di ...

human arginase I (hargI) [5] = target: T1, human arginase I (hargI); assay: Kinetic assay of L-arginine metabolism in absence/presence of peptide; format: biochemical; settings: 1 mM peptide REGNH, 40 mM L-arginine
Experimental: The kinetic properties of hargI and II were tested according to previously reported methods with minor modifications. The Arginases activity was assessed by colorimetric measurement of produced urea. The assays were performed in 96-well plates (Greiner) using Assay buffer [100 mM Na-phosphate pH 7.4, 130 mM NaCl]. Final volume of each reaction was 60 μl, the final concentration of hargI and hargII was 50 nM in each well. Samples containing no hargI or hargII were used as negative control. The peptide inhibitor was added based on experiment setting, dose ranging from 20 mM to 9.8 μM. Each sample was pre-incubated for 30 min in a 37 °C shaking incubator (100 rpm) and the reactions were started by adding concentrated substrate buffer [Assay buffer supplemented with 100 mM L-arginine, 500 mM Glycine and 1.25 mM MnCl2]. Reactions were performed in a shaking incubator at 37 °C and quenched after 1 h using a Stop mix. The Stop mix consisted of two volumes of freshly prepared solution A [Antipyrine/ H2SO4 reagent: 5 g/L of antipyrine(1,5-dimethyl-2-phenyl-3-pyrazolone) in 50%(v/v) sulfuric acid] and one volume solution B [Oxime reagent: 0.8 g 2,3-Butanedione monoxime in 100 ml of 5%(v/v) acetic acid]. […] The color turns to brown and changes in optical density (OD) at 466 nm reflecting the production of urea were quantified using the Synergy H1 Hybrid Reader (BioTek). […]

human arginase I (hargI) [6] = target: T1, human arginase I (hargI); assay: Enzymatic assay, L-arginine hydrolysis by hargI, colorimetric urea; format: biochemical; settings: called preliminary data, read-out: IC50 (abstract)
Experimental: The kinetic properties of hargI and II were tested according to previously reported methods with minor modifications. The Arginases activity was assessed by colorimetric measurement of produced urea. The assays were performed in 96-well plates (Greiner) using Assay buffer [100 mM Na-phosphate pH 7.4, 130 mM NaCl]. Final volume of each reaction was 60 μl, the final concentration of hargI and hargII was 50 nM in each well. Samples containing no hargI or hargII were used as negative control. The peptide inhibitor was added based on experiment setting, dose ranging from 20 mM to 9.8 μM. Each sample was pre-incubated for 30 min in a 37 °C shaking incubator (100 rpm) and the reactions were started by adding concentrated substrate buffer [Assay buffer supplemented with 100 mM L-arginine, 500 mM Glycine and 1.25 mM MnCl2]. Reactions were performed in a shaking incubator at 37 °C and quenched after 1 h using a Stop mix. The Stop mix consisted of two volumes of freshly prepared solution A [Antipyrine/ H2SO4 reagent: 5 g/L of antipyrine(1,5-dimethyl-2-phenyl-3-pyrazolone) in 50%(v/v) sulfuric acid] and one volume solution B [Oxime reagent: 0.8 g 2,3-Butanedione monoxime in 100 ml of 5%(v/v) acetic acid]. […] The color turns to brown and changes in optical density (OD) at 466 nm reflecting the production of urea were quantified using the Synergy H1 Hybrid Reader (BioTek).

[7] = target: T3, human arginase II (hargII) (Homo sapiens, UniProt P78540); assay: Enzymatic assay, L-arginine hydrolysis by hargII, colorimetric urea; format: biochemical; settings: called preliminary data, read-out: IC50 (abstract)
T3 construct: The human arginase II (aa23-354, 38.3kD) fused to a His6-tag at the N-terminal; purchased USBiological Life Science, Salem, USA
T3 sequence (P78540 23-354): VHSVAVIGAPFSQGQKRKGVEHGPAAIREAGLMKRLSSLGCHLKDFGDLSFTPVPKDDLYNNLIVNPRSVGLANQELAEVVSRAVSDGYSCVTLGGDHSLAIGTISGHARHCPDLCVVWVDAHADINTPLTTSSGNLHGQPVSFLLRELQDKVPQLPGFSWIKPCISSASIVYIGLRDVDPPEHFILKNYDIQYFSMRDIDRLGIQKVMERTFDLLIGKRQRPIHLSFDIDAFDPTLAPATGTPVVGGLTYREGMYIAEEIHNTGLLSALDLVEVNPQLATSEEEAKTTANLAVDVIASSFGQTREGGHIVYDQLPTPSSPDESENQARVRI
Experimental: The human arginase II (aa23-354, 38.3kD) fused to a His6-tag at the N-terminal was purchased and supplied as a liquid aliquot (20 mM Tris-HCl, pH 8.0, 10% (v/v) glycerol) at −20 °C (USBiological Life Science, Salem, USA). This stock was thaw on ice, followed by high speed centrifuging before diluting to certain concentration for activity assay.
The kinetic properties of hargI and II were tested according to previously reported methods with minor modifications. The Arginases activity was assessed by colorimetric measurement of produced urea. The assays were performed in 96-well plates (Greiner) using Assay buffer [100 mM Na-phosphate pH 7.4, 130 mM NaCl]. Final volume of each reaction was 60 μl, the final concentration of hargI and hargII was 50 nM in each well. Samples containing no hargI or hargII were used as negative control. The peptide inhibitor was added based on experiment setting, dose ranging from 20 mM to 9.8 μM. Each sample was pre-incubated for 30 min in a 37 °C shaking incubator (100 rpm) and the reactions were started by adding concentrated substrate buffer [Assay buffer supplemented with 100 mM L-arginine, 500 mM Glycine and 1.25 mM MnCl2]. […] The color turns to brown and changes in optical density (OD) at 466 nm reflecting the production of urea were quantified using the Synergy H1 Hybrid Reader (BioTek).

[8] = target: T4, human arginase II (aa23-354, 38.3kD) (human, UniProt P78540 23-354, RED-tris-NTA dye labeled in the MST assay); assay: MST; Monolith NT.115; His6-tagged arginase labeled with RED-tris-NTA at 50 nM, peptide REGNH titrated in 1:1 dilution; 25 mM Tris-HCl pH 7.5, 125 mM NaCl, 1% glycerol, 1 mM BME, 0.05% Tween-20; 10 min incubation at room temperature; triplicate; settings: both partners purified
T4 construct: human arginase II, aa23-354, 38.3kD, fused to a His6-tag at the N-terminal; also called hargII; source: bought: USBiological Life Science, Salem, USA; not shown: His6, N-terminal, kept
T4 sequence (looked up): T3 sequence (P78540 23-354)

human arginase I [9] = target: T5, human arginase I (human, UniProt P05089 1-322, RED-tris-NTA dye on the His6-tag (Monolith His-Tag Labeling Kit RED-tris-NTA) in the MST assay); assay: as above; settings: both partners purified
T5 construct: human arginase I, full-length gene amplified from a commercial template plasmid (dnasu.org), cloned in pETM11; His6-tag and TEV protease site at the N-terminus; A TEV protease site lies between the His6-tag and the protein; no cleavage is described; also called hargI; hArg1; source: E. coli BL21 (DE3) RIL, purified (Ni-NTA, SEC); not shown: His6, N-terminal, kept
T5 sequence (looked up): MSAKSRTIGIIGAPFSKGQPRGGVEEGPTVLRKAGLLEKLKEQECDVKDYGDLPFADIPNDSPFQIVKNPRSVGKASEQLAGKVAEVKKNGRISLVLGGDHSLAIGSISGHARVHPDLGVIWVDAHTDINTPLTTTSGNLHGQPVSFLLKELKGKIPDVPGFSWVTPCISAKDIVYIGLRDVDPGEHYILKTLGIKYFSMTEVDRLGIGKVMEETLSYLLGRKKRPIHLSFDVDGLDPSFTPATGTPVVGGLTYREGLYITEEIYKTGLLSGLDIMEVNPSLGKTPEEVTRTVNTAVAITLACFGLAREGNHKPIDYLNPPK

[10] = target: T4, human arginase II (aa23-354, 38.3kD); assay: cell-based or functional assay
human arginase I [11] = target: T5, human arginase I; assay: cell-based or functional assay

In the case of `N[C@@H](CCCCB(O)O)C(=O)O` [ABH, 2-(S)-amino-6-boronohexanoic acid], the IC50 (human arginase I (hargI) [1]; ABH on hargI, printed in parentheses after 'those of the apo-enzyme', the comparison is with hargI + 1 mM REGNH) is reported as 1 ± 0.03 µM, the “inhibition of hargI by ABH in presence of REGNH compared with apo-enzyme” value (human arginase I (hargI) [1]; hargI supplemented with 1 mM peptide REGNH) is reported as “comparable inhibition constants to those of the apo-enzyme” and the Kd ([2]; MST, ABH to hargI, MST buffer pH 7.5) is reported as ~0.6 µM. The “binding to hargI” value ([2]; dose-dependent MST assay) was “strong binding”.

For `Cl.N=C(N)N` [guanidinium chloride], the “activity of Arg308Ala mutant with Gdn+” value [3] is listed as “significantly increased activity”, the “trimeric assembly and substrate cooperativity of Arg308Ala mutant with Gdn+” value [3] is listed as “restored the trimeric assembly and substrate cooperativity” and the “activity of Arg308Ala mutant with Gdn+” value ([3]; listed as Gdn^+) is listed as “significantly increased”. For the same molecule, the “response of wild-type and truncated species to Gdn+” value [4] was “not responsive”.

With REGNH [REGNH] the “lowering of activity with respect to apo-enzyme” value (human arginase I (hargI) [5]) was “≈ 15%”, the IC50 (human arginase I (hargI) [6]) was 2400 ± 300 µM and the IC50 [7] was 1800 ± 100 µM.

B1: synthetic peptide REGNH (peptide)
peptide: REGNH
notes: residues 308-312 of human arginase I, part of the S-shape motif of the C-terminal; Nothing is said of modified ends; also called peptide analogue; REGNH C-terminus analogue peptide; source: synthetic peptide; bought: Biomatik and TopPeptides, Shanghai
In the case of B1, the Kd [8] is reported as 196 ± 25 µM, the Kd (human arginase I [9]) is reported as 177 ± 50 µM and the “inhibition of hargII enzymatic activity (colorimetric measurement of urea from L-arginine), peptide 9.8 μM to 20 mM; IC50” value [10] is reported as 1800 µM. The “inhibition of hargI enzymatic activity (colorimetric measurement of urea from L-arginine), peptide 9.8 μM to 20 mM; IC50” value (human arginase I [11]) was 2400 µM.
